Results as given in patent publication US7998924B2, “Compounds that bind to p185 and methods of using the same” (The Trustees of The University of Pennsylvania, priority 2001, dated 2011).
“Also recorded” adds a separate entry of the source. Like-named read-outs stand apart in the source and are kept apart here. Positions of bridges follow the written chain, without caps; N, C: chain ends. Residues, ends and D or L forms follow the SMILES beside them. No end group written: not given here.

Key:
[1] = molecular target: T1, HER2 receptor (Homo sapiens, UniProt P04626); test: Biacore (surface plasmon resonance) binding of peptides to immobilized HER2; conditions: for kon: read-out: binding to HER2 kon
T1 construct: Recombinant purified HER2 receptor composed of the ectodomain of HER2 fused to the Fc of human IgG; purchased Xcyte Therapeutics, Seattle, Wash; (provided by Dr. Che Law; a gift, not a catalogue product)
Excerpt: Binding of AHNP has been studies by means of surface plasmon resonance (Biacore) technology. In Biacore experiments, one of the interacting molecules (termed the ligand) is immobilized on the sensor surface, and the other interactant (termed the analyte) is continuously flown over that surface in a micro-flow cell. The interaction between the ligand and the analyte are monitored using a light source that is reflected at the immobilized chip. Binding of the analyte to the immobilized ligand changes the resonance angle of the reflected light due to changes in the refractive index of the surface. The response is plotted in real time in the form of sensorgram curves. The advantage with this approach is its sensitivity, ease of use, and ability to perform experiments with few microgram quantities of proteins and peptides. In addition, the kinetic binding studies reveal association and disassociation rates of the analyte which may be more relevant for understanding the pharmacokinetics of drug-receptor interactions.
Binding experiments were performed with the surface plasmon resonance based biosensor instrument Biacore 3000 (Biacore AB, Uppsala, Sweden) at 25° C. Recombinant purified HER2 receptor composed of the ectodomain of HER2 fused to the Fc of human IgG was provided by Dr. Che Law, Xcyte Therapeutics, Seattle, Wash. Immobilization of HER2 in the sensor surface was performed following the standard amine coupling procedure according to manufacturer's instructions. Briefly, 35 pit of a solution containing 0.2M N-ethyl-N-(dimethylaminopropyl) carbodiimide (EDC) and 0.05 M N-hydroxysuccinimide (NHS) were injected at a flow rate of 5 μL/min to activate carboxyl groups on the sensor chip surface. HER2 (40 ng/mL in 10 mM NaOAc buffer, pH 5.0) was flowed over the chip surface at a flow rate of 20 μL/min until the desired level bound protein was reached. Unreacted protein was washed out and unreacted activated groups were blocked by the injection of 35 μL of 1 M ethanolamine at 5 μL/min. […] A reference surface was generated simultaneously under the same conditions but without HER2 injection and used as a blank to correct for instrument and buffer artifacts. Peptides were injected at variable concentrations at 20 μL/min flow rate and binding to the HER2 receptor immobilized on the chip was monitored in real time. Each sensorgram consists of an association phase (first 240 s), reflecting binding of the injected peptide to the receptor, followed by a dissociation phase (300 s), during which the running buffer is passed over the chip and the bound peptide is being washed off the receptor surface.

[2] = Peptide solubility in PBS buffer at 1 mg/mL; assay type: physicochemical; conditions: pH 7.4, 1 mg/mL
Procedure: These peptides could be readily dissolved in the PBS buffer, pH 7.4, at 1 mg/mL concentration without adjustment of pH.

[3] = test system: T6-17 cells; conditions: for % inhibition of T6-17 cell proliferation in MTT assays: 1 μg/mL of peptides for 48 h
Procedure: (See reference 46 below.) HER2-expressing transformed tumor cells (T6-17) were used for this purpose. […] Each value represents an average of at least four samples.
The MTT assay has been used for measuring cell growth as previously described in ref 446. Briefly, T6-17 cells were seeded in 96-well plates overnight in DMEM containing 10% FBS (1000 per well). T6-17 is derived from NIH3T3 by overexpressing the human HER2 receptor. Cells were cultured in 100 μL of fresh medium containing 1 μg/mL of peptides for 48 h. […] A total of 25 μL of MTT solution (5 mg/mL in PBS) was added to each well, and after 2 h of incubation at 37° C., 100 μA of the extraction buffer (20% w/v of SDS, 50% N,N-dimethyl formamide, pH 4.7) were added. After an overnight incubation at 37° C., the optical density at 600 rim was measured using an ELISA reader.

[4] = test system: MCF-7/H2 p185-overexpressing cells; test: Combination treatment with tamoxifen, growth inhibition, MCF-7/H2; assay type: cell-based; conditions: peptide 1 μg/ml plus tamoxifen
[5] = test system: MCF-7 parental strain (MCF/Par) p185-expressing cells; test: Combination treatment with tamoxifen, growth inhibition, MCF-7 parental; assay type: cell-based; conditions: peptide 1 μg/ml plus tamoxifen
[6] = Biacore, immobilized HER2, 25° C., read-out: binding to HER2 KD
[7] = Biacore, immobilized HER2, 25° C., read-out: binding to HER2 koff
[8] = Biacore, immobilized HER2, 25° C.

T1 sequence (P04626 23-652 limits assumed): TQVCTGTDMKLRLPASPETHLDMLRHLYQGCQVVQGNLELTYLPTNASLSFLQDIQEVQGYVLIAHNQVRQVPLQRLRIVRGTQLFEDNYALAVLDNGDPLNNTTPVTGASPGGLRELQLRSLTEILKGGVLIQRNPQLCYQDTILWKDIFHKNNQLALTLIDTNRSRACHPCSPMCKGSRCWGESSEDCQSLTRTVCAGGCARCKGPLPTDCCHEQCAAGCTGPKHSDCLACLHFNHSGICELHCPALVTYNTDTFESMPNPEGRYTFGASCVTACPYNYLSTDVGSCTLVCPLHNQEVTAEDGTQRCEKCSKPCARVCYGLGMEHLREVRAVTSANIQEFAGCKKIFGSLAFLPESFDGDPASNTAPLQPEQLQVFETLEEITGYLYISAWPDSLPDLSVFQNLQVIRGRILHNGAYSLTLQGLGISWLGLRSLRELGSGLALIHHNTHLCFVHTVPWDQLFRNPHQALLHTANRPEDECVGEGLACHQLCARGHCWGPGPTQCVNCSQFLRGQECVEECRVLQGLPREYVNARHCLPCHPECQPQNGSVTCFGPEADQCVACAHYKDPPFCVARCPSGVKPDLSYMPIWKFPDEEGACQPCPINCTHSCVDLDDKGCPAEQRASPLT

koff [1, 7] [s⁻¹] | kon [1, 8] [M⁻¹ s⁻¹] | Molecule | Kd [1, 6] [nM] | solubility [2] [µg/mL] | solubility (in words) [2] | also measured
 |  | CSCC[C@H](NC(=O)[C@H](Cc1ccc(O)cc1)NC(=O)[C@@H]1CSSC[C@H](NC(=O)[C@@H](N)Cc2ccccc2)C(=O)N[C@@H](CC(=O)O)C(=O)NCC(=O)N[C@@H](Cc2ccccc2)C(=O)N[C@@H](Cc2ccc(O)cc2)C(=O)N[C@@H](C)C(=O)N1)C(=O)N[C@@H](CC(=O)O)C(=O)N[C@H](C(=O)O)C(C)C [Peptide 2] | 650 | < 1000 | no improvement in solubility | fold increase in binding affinity for HER2 relative to the comparator peptide ([1]; 2 vs linear 9, AHNP vs 2, 3 vs AHNP): more than 5 fold; koff ([1]; read-out: binding to HER2 koff): 0.000643 s⁻¹; kon [1]: 990 M⁻¹ s⁻¹; % inhibition of T6-17 cell proliferation in MTT assays [3]: 22.3%
 |  | CSCC[C@H](NC(=O)[C@H](Cc1ccc(O)cc1)NC(=O)[C@@H]1CSSC[C@H](NC(=O)[C@@H](N)Cc2ccccc2)C(=O)N[C@@H](CC(=O)O)C(=O)NCC(=O)N[C@@H](Cc2ccccc2)C(=O)N[C@@H](Cc2ccc(O)cc2)C(=O)N[C@@H](C)C(=O)N1)C(=O)N[C@@H](CC(=O)O)C(=O)N[C@H](C(=O)N[C@@H](CCCCN)C(N)=O)C(C)C [Peptide 5] (H-FCDGFYACYMDVK-NH2; disulfide 2-8) | 830 | < 1000 | no improvement in solubility | lower receptor affinity than 7 ([1]; relative to peptide 7): 14%
0.00125 | 219 | CC(C)[C@H](NC(=O)[C@H](CC(=O)O)NC(=O)[C@H](CCCCN)NC(=O)[C@H](Cc1ccc(O)cc1)NC(=O)[C@@H]1CSSC[C@H](NC(=O)[C@@H](N)Cc2ccccc2)C(=O)N[C@@H](CC(=O)O)C(=O)NCC(=O)N[C@@H](Cc2ccccc2)C(=O)N[C@@H](Cc2ccc(O)cc2)C(=O)N[C@@H](C)C(=O)N1)C(=O)O [Peptide 6] (H-FCDGFYACYKDV-OH; disulfide 2-8; N-terminus assumed) | 5700 | > 1000 | much higher solubility | fold decrease in binding affinity for HER2 ([1]; Lys-containing analogues vs parent peptide): 8.8 fold; decrease in binding affinity ([1]; Met replaced with Lys): about 1 order of magnitude
0.000808 | 1110 | CSCC[C@H](NC(=O)[C@H](Cc1ccc(O)cc1)NC(=O)[C@@H]1CSSC[C@H](NC(=O)[C@H](Cc2ccccc2)NC(=O)CN)C(=O)N[C@@H](CC(=O)O)C(=O)NCC(=O)N[C@@H](Cc2ccccc2)C(=O)N[C@@H](Cc2ccc(O)cc2)C(=O)N[C@@H](C)C(=O)N1)C(=O)N[C@@H](CC(=O)O)C(=O)N[C@H](C(=O)O)C(C)C [Peptide 7] (H-GFCDGFYACYMDV-OH; disulfide 3-9) | 730 | > 1000 | increased solubility; also recorded: good solubility | 
0.000701 | 922 | CSCC[C@H](NC(=O)[C@H](Cc1ccc(O)cc1)NC(=O)[C@@H]1CSSC[C@H](NC(=O)[C@@H](N)Cc2ccccc2)C(=O)NCC(=O)N[C@@H](CC(=O)O)C(=O)NCC(=O)N[C@@H](Cc2ccccc2)C(=O)N[C@@H](Cc2ccc(O)cc2)C(=O)N[C@@H](C)C(=O)N1)C(=O)N[C@@H](CC(=O)O)C(=O)N[C@H](C(=O)O)C(C)C [Peptide 8] (H-FCGDGFYACYMDV-OH; disulfide 2-9; N-terminus assumed) |  | > 1000 | much higher solubility | 
 |  | CSCC[C@H](NC(=O)[C@H](Cc1ccc(O)cc1)NC(=O)[C@H](CS)NC(=O)[C@H](C)NC(=O)[C@H](Cc1ccc(O)cc1)NC(=O)[C@H](Cc1ccccc1)NC(=O)CNC(=O)[C@H](CC(=O)O)NC(=O)[C@H](CS)NC(=O)[C@@H](N)Cc1ccccc1)C(=O)N[C@@H](CC(=O)O)C(=O)N[C@H](C(=O)O)C(C)C [Peptide 9] |  | > 1000 | much higher solubility | Kd [1]: 3560 nM; koff ([1]; read-out: binding to HER2 koff): 0.00106 s⁻¹; kon [1]: 298 M⁻¹ s⁻¹; % inhibition of T6-17 cell proliferation in MTT assays [3]: 12.8%
 |  | FCGDGFYACYMDV-NH2 (disulfide 2-9 (inferred)) [SEQ ID NO: 143] |  |  |  | growth inhibition in combination with tamoxifen (in words) [4]: enhanced in vitro inhibition of proliferation; growth inhibition in combination with tamoxifen (in words) [5]: enhanced in vitro inhibition of proliferation

Molecule | koff [1, 7] [s⁻¹] | kon [1, 8] [M⁻¹ s⁻¹] | Kd [1, 6] [nM] | solubility [2] [µg/mL] | solubility (in words) [2] | also measured
CSCC[C@H](NC(=O)[C@H](Cc1ccc(O)cc1)NC(=O)[C@@H]1CSSC[C@H](NC(=O)[C@@H](N)Cc2ccc(O)cc2)C(=O)N[C@@H](CC(=O)O)C(=O)NCC(=O)N[C@@H](Cc2ccccc2)C(=O)N[C@@H](Cc2ccc(O)cc2)C(=O)N[C@@H](C)C(=O)N1)C(=O)N[C@@H](CC(=O)O)C(=O)N[C@H](C(N)=O)C(C)C [Peptide 3] (H-YCDGFYACYMDV-NH2; disulfide 2-8; N-terminus assumed) | 0.000294 | 1960 |  | < 1000 |  | koff ([1]; Biacore, immobilized HER2, read-out: koff): 0.000294 s⁻¹; Kd ([1]; Biacore, read-out: receptor-binding affinity KD): 150 nM; growth inhibition in combination with tamoxifen (in words) [4]: enhanced growth inhibition; biological activity in the MTT assay relative to comparator (in words) ([3]; T6-17 cells): almost twice the activity of AHNP; growth inhibition in combination with tamoxifen (in words) [5]: enhanced growth inhibition
CSCC[C@H](NC(=O)[C@@H](Cc1ccc(O)cc1)NC(=O)[C@@H]1CSSC[C@H](NC(=O)[C@H](N)Cc2ccccc2)C(=O)N[C@@H](CC(=O)O)C(=O)NCC(=O)N[C@@H](Cc2ccccc2)C(=O)N[C@@H](Cc2ccc(O)cc2)C(=O)N[C@@H](C)C(=O)N1)C(=O)N[C@@H](CC(=O)O)C(=O)N[C@H](C(N)=O)C(C)C [Peptide 4] | 0.000603 | 1720 | 350 | > 1000 | much higher solubility | 
